Measurements taken from patent US7659277B2, “Ubiquitin ligase inhibitors and methods related thereto” (Proteologies, Ltd., priority 2003, dated 2010).

Tests used:
c-cbl = c-cbl (Homo sapiens, UniProt P22681); assay: Selectivity (% A in 1 μM), ubiquitin ligase activity of c-cbl; type: biochemical; conditions: % activity at 1 μM compound; control is related to 100% activity; HTS protocol
E2 protein = type: biochemical; conditions: % activity at 1 μM compound; control is related to 100% activity; HTS protocol
POSH = molecular target: T1, POSH (Homo sapiens, UniProt Q7Z6J0); assay: IC50 assay procedure: GST-POSH auto-ubiquitination, homogeneous time-resolved fluorescence (Ub-cryptate / anti-GST XL665); type: biochemical; conditions: ubiquitin ligase activity of POSH; GST-POSH 33 nM, 30 min preincubation
T1 construct: GST-POSH lot NB81/p.118 3.6 mg/ml; fused on or other part: GST tag, used for detection with anti-GST XL665
T1 sequence (Q7Z6J0 1-269 limits assumed): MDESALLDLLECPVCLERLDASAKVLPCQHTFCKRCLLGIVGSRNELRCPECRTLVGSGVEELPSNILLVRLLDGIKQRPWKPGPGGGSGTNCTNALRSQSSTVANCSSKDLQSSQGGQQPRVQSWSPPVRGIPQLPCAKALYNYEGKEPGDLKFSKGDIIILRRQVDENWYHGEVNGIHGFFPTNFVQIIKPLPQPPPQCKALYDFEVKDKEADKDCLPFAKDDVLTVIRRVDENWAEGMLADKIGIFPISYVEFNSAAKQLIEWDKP
Procedure, shortened: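 GST-POSH (33 nM) preincubated 30 min at RT with compounds (DMSO dilution series), then added to E1/E2/Eu-cryptate-ubiquitin enzyme mix for 30 min at 37 °C. Stopped with EDTA, anti-GST XL665 added 45 min at RT; HTRF signal of POSH auto-ubiquitination read, triplicates, IC50 from concentration series.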

HIV-1 = assay: HIV maturation (budding) in virus-like particle assay, HIV-1 p24 antigen ELISA; type: cell-based; conditions: Human immunodeficiency virus 1, read-out: Budding (3 μM)
Source text: Compounds were further assessed for effects on maturation of HIV particles in a virus-like particle assay.

## Cc1ccc(C(=O)NN=C2CCC(=NNC(=O)c3ccc(C)cc3)CC2)cc1 [Compound 93]
c-cbl
  remaining activity at 1 µM: 84%
E2 protein
  Selectivity (% A* in 1 μM) E2: 78%
POSH
  IC50: 1300 nM

## O=C1c2ccccc2-c2nc3nonc3nc21 [Compound 91]
HIV-1
  activity at 3 µM: 33%
POSH
  IC50: 300 nM

## Cc1cc(O)c(C(=O)/C=C/c2cccc(I)c2)c(=O)o1 [Compound 87]
HIV-1
  activity at 3 µM: 29%
POSH
  IC50: 800 nM

## COC(=O)C1=C(C(=O)OC)SC(=C2C(=S)C(C)(C)N(C(C)=O)c3cc(C)ccc32)S1 [Compound 99]
c-cbl
  remaining activity at 1 µM: 88%
E2 protein
  Selectivity (% A* in 1 μM) E2: 89%
POSH
  IC50: 1500 nM

## O=C(/C=C/c1cccnc1)c1ccc(C(=O)/C=C/c2cccnc2)cc1 [Compound 92]
c-cbl
  remaining activity at 1 µM: 111%
E2 protein
  Selectivity (% A* in 1 μM) E2: 125%
POSH
  IC50: 500 nM

## O=C(Nc1cccc2c(NC(=O)C3C4CCCCC43)cccc12)C1C2CCCCC21 (stereo not shown) [Compound 97]
HIV-1
  activity at 3 µM: 64%
POSH
  IC50: 600 nM

## O=c1oc2ccccc2c(O)c1C(=S)Nc1ccccc1 [Compound 96]
HIV-1
  activity at 3 µM: 56%
POSH
  IC50: 500 nM

## COc1ccc(C(=O)CC2=C(O)C(=O)c3ccccc3C2=O)cc1 [Compound 89]
c-cbl
  remaining activity at 1 µM: 109%
E2 protein
  Selectivity (% A* in 1 μM) E2: 70%
POSH
  IC50: 1000 nM

## COc1ccc(Nc2ccc(O)c3c2C(=O)c2ccccc2C3=O)cc1 [Compound 100]
c-cbl
  remaining activity at 1 µM: 100%
E2 protein
  Selectivity (% A* in 1 μM) E2: 59%
POSH
  IC50: 700 nM

## O=C(NCc1ccc(Cl)cc1)C(=O)Nc1ccccc1 [Compound 104]
c-cbl
  remaining activity at 1 µM: 140%
E2 protein
  Selectivity (% A* in 1 μM) E2: 113%
POSH
  IC50: 1000 nM

## O=C(O)COc1ccc2c(c1)oc(=O)c1ccccc12 [Compound 85]
HIV-1
  activity at 3 µM: 59%
POSH
  IC50: 700 nM

## O=C(NC(C(Cl)(Cl)Cl)S(=O)(=O)c1ccccc1)c1ccc(Cl)cc1Cl (stereo not shown) [Compound 88]
HIV-1
  activity at 3 µM: 57%
POSH
  IC50: 250 nM

## Cc1[nH]c(=O)c(C(=O)/C=C/c2ccccc2F)c2c1CCCC2 [Compound 95]
c-cbl
  remaining activity at 1 µM: 136%
E2 protein
  Selectivity (% A* in 1 μM) E2: 100%
POSH
  IC50: 1000 nM

## CN(C)c1ccc(/C=C2/C(=O)NC(=O)N(C3CCCCC3)C2=O)cc1 [Compound 3]
POSH
  IC50: 900 nM

## O=C1NC(=O)N(c2ccccc2)C(=O)/C1=C\c1ccc2c(c1)OCO2 [Compound 4]
POSH
  IC50: 800 nM

## Cc1cc(OC(=O)Cn2c(=O)sc3ccccc32)ccc1Cl [Compound 103]
HIV-1
  activity at 3 µM: 69%
POSH
  IC50: 400 nM

## O=C(Cc1ccccc1)N1N=CCC1(O)c1ccc(F)cc1 (stereo not shown) [Compound 94]
c-cbl
  remaining activity at 1 µM: 106%
E2 protein
  Selectivity (% A* in 1 μM) E2: 49%
POSH
  IC50: 1000 nM

## COc1cc(C2Nc3ccccc3NC3=C2C(=O)CC(C)(C)C3)cc(Br)c1O (stereo not shown) [Compound 102]
c-cbl
  remaining activity at 1 µM: 111%
E2 protein
  Selectivity (% A* in 1 μM) E2: 99%
POSH
  IC50: 800 nM
